Some results are limits rather than exact numbers.

Here are results for 1 molecule from patent US12637469B2, “1H-pyrazole derivative and application thereof as dual target inhibitor of Syk and VEGFR2” (Ocumension Therapeutics (Suzhou) Co., Ltd., priority 2020, dated 2026).

The target in series [1] is T1, CYP3A4 (Homo sapiens, UniProt P08684).
T1 construct: human liver microsome working solution was prepared; from tissue; host or cells: human liver microsomes
Description: Inhibition of cytochrome P450 enzymes in human liver microsomes (LC-MS/MS). The format is in vitro ADME. The protocol: (§1) In order to investigate the activity of the compound on human liver microsomal CYP450 enzyme, Liquid Chromatography-Mass Spectrometry/Mass Spectrometry (LC-MS/MS) method was used in this study to determine the inhibitory effect of compound 1 on five main subtypes (CYP1A2, 2C9, 2C19, 2D6, 3A4) of human hepatocyte CYP450 enzyme, and compound screening and analysis were conducted using IC50 value as the indicator.
(§2) • 1) A test compound and a standard inhibitor working solution (100×) were prepared; • 2) microsomes were taken out of a −80° C. freezer, thawed on ice, labeled with the date, and put back in the freezer immediately after use; • 3) 20 microliters of matrix solution was added to the corresponding wells; • 4) 20 microliters of phosphate buffered saline was added to the blank wells; • 5) 2 microliters of the test compound and positive control working solution were added to the corresponding wells; • 6) 2 microliters of solvent was added to each of the inhibitor-free wells and the blank wells; • 7) human liver microsome working solution was prepared; • 8) 158 microliters of HLM working solution was added to all wells of the incubation plate; • 9) the plate was heated in a 37° C. water bath for about 10 minutes; • 10) NADPH cofactor solution was prepared; • 11) 20 microliters of NADPH cofactor was added to all of the incubation wells; • 12) all CYPs were subjected to mixed culture in a 37° C. water bath for 10 minutes; • 13) at a certain point in time, the reaction was stopped by adding 400 microliters of cold solution (200 ng/mL of tolbutamide in acetonitrile and 200 ng/mL of Labetalol in acetonitrile); • 14) the samples were centrifuged at 4000 rpm for 20 minutes to precipitate proteins; • 15) 200 microliters of supernatant was transferred into 100 microliters of high performance liquid chromatography water, and shaked for 10 minutes; • 16) LC/MS/MS analysis was started.
In general terms: Liver microsomes are vesicles of endoplasmic reticulum, rich in cytochrome P450 enzymes.

The target of series [2] is T2, CYP1A2 (Homo sapiens, UniProt P05177).
T2 construct: human liver microsome working solution was prepared; from tissue; host or cells: human liver microsomes
The series is described as above. The format is in vitro ADME. Here is the method: as §1, §2

In series [3] the target is T3, CYP2D6 (Homo sapiens, UniProt P10635).
T3 construct: human liver microsome working solution was prepared; from tissue; host or cells: human liver microsomes
The series is described as above. The format is in vitro ADME. The protocol:
as §1, §2

Series [4] has as its target T4, CYP2C9 (Homo sapiens, UniProt P11712).
T4 construct: human liver microsome working solution was prepared; from tissue; host or cells: human liver microsomes
Described as above. The format is in vitro ADME. The protocol:
as §1, §2

Series [5] deals with T5, JAK2(h) (Homo sapiens, UniProt O60674).
T5 construct: purchased Eurofins (KinaseProfiler service)
Description: Eurofins KinaseProfiler off-target kinase inhibition. The format is biochemical. The protocol:
(§3) In order to investigate the specificity of the inhibition of the target by the compound, in this study, the activity and selectivity of test compound 1 on the off-target kinases in related pathways were tested on the Eurofins kinaseProfiler™ platform, and compound screening and analysis were conducted using IC50 value as the indicator.
(§4) Compound 1 was detected for each selected kinase using the standard Eurofins Kinase Profiler™ protocol, which followed the relevant standard operating procedures. The IC50 values of the inhibitory activity of the test compound 1 on 67 kinases including Abl(h), B-Raf(h), BTK(h) and JAK(h) were analyzed.

Series [6] concerns the target T6, IKKβ(h) (Homo sapiens, UniProt O14920).
T6 construct: purchased Eurofins (KinaseProfiler platform)
The description is as above. The format is biochemical. The protocol: as §3, §4

Series [7] deals with T7, JNK1α1(h) (Homo sapiens, UniProt P45983).
T7 construct: purchased Eurofins (KinaseProfiler service)
The series is described as above. The format is biochemical. Here is the method:
as §3, §4

The target of series [8] is T8, TGFBR1(h) (Homo sapiens, UniProt P36897).
T8 construct: purchased Eurofins (KinaseProfiler platform)
Described as above. The format is biochemical. Here is the method:
as §3, §4

Series [9] concerns the target T9, Itk(h) (Homo sapiens, UniProt Q08881).
T9 construct: purchased Eurofins (KinaseProfiler service)
The description is as above. The format is biochemical. The protocol: as §3, §4

The target in series [10] is T10, BRK(h) (Homo sapiens, UniProt Q13882).
T10 construct: purchased Eurofins (KinaseProfiler platform)
The series is described as above. The format is biochemical. The protocol: as §3, §4

The target of series [11] is T11, Aurora-B(h) (Homo sapiens, UniProt Q96GD4).
T11 construct: purchased Eurofins (KinaseProfiler platform)
The series is described as above. The format is biochemical. The protocol: as §3, §4

Series [12] concerns the target T12, FGFR1(h) (Homo sapiens, UniProt P11362).
T12 construct: purchased Eurofins (KinaseProfiler platform)
The series is described as above. The format is biochemical. Here is the method:
as §3, §4

For series [13], the target named is T13, ROCK-II(h) (Homo sapiens, UniProt O75116).
T13 construct: purchased Eurofins (KinaseProfiler platform)
The description is as above. The format is biochemical. Here is the method: as §3, §4

Series [14] has as its target T14, IR(h) (Homo sapiens, UniProt P06213).
T14 construct: purchased Eurofins (KinaseProfiler service)
Described as above. The format is biochemical. The protocol:
as §3, §4

Series [15] addresses T15, MKK4(m) (Mus musculus, UniProt P47809).
T15 construct: purchased Eurofins (KinaseProfiler service)
Described as above. The format is biochemical. Here is the method:
as §3, §4

In series [16] the target is T16, SAPK2a(h) (Homo sapiens, UniProt Q16539).
T16 construct: purchased Eurofins (KinaseProfiler platform)
The description is as above. The format is biochemical. The protocol: as §3, §4

Series [17] can be described thus: Pharmacokinetic evaluation of ocular administration to mouse (cornea and plasma exposure). The format is in vivo, C57BL/6 mice. Conditions: eye drop, 0.1 mg/animal. The protocol:
In order to investigate the eye-to-blood ratio of the in vivo exposure amounts of the compound after ocular administration thereof, LC-MS/MS method was used in this study to determine the exposure amounts of compound 1 in cornea and plasma after the ocular administration of the compound 1 to a mouse, where compound screening and analysis were conducted by using the drug concentration at the same time point as an indicator.
C57BL/6 mice, weighing 18-20 g, were randomly divided into 4 groups after 3-5 days of acclimatization, with each group including three mice, and the mice were administered by eye drops at 5 μL for each eye.
The test animals (C57BL/6 mice) were not fasted before administration, but drank water freely before and during the experiment.
About 0.05 mL of blood was collected from saphenous vein at 1 hour and 3 hours following the eye drop administration, anticoagulated with commercial EDTA-K2, and transferred to a centrifuge for centrifugation. After blood sampling from saphenous vein, the corneas were collected under isoflurane anesthesia. At each of the time points, the plasma and corneas of the mice in the same group were pooled for detection.
Plasma: within 30 minutes the plasma was transferred to be subject to centrifugation at 4° C., 3200 g for 10 minutes, and 20 μL of plasma was taken from each mouse. At each time point, the plasma of the mice in the same group was pooled for detection.
Cornea: the cornea was removed, rinsed twice with pre-cooled normal saline, dried with a paper towel, and put into a 1.5 mL centrifuge tube, weighed with an analytical balance by a peeling method, and finally the body weight was weighed. At each time point, the corneas of the mice in the same group were pooled for detection.
Corneal homogenization method: 1 g of cornea was added to 9 mL of pre-cooled methanol: 15 mM phosphate buffer solution=1:2, an ultrasonic cell disruptor (No. 2 amplitude rod, amplitude 50%, working for 5 s, stopping for 5 s, and ultrasonic treatment for 3 min) was used.

T12 sequence (P11362 22-822): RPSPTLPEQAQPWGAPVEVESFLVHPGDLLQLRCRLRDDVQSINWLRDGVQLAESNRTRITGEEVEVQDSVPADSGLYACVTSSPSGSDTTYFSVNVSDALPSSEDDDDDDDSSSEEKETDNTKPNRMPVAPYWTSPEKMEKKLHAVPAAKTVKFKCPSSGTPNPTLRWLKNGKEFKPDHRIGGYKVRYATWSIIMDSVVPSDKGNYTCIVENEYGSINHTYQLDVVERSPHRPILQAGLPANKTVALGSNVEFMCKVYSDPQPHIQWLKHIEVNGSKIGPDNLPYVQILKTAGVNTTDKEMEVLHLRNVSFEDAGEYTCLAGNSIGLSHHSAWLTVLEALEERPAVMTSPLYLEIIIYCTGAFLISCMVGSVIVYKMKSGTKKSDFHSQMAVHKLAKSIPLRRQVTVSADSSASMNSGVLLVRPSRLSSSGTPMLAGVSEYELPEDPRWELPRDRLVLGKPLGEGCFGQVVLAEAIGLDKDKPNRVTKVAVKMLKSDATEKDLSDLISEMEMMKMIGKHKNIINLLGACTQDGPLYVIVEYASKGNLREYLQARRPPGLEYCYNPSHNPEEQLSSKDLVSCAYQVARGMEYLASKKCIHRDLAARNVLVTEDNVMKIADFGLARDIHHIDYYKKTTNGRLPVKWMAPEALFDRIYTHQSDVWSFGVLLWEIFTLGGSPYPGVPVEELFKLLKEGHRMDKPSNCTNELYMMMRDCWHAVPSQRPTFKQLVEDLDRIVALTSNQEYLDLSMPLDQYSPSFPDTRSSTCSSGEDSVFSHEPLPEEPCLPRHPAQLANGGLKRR
T8 sequence (P36897 34-503): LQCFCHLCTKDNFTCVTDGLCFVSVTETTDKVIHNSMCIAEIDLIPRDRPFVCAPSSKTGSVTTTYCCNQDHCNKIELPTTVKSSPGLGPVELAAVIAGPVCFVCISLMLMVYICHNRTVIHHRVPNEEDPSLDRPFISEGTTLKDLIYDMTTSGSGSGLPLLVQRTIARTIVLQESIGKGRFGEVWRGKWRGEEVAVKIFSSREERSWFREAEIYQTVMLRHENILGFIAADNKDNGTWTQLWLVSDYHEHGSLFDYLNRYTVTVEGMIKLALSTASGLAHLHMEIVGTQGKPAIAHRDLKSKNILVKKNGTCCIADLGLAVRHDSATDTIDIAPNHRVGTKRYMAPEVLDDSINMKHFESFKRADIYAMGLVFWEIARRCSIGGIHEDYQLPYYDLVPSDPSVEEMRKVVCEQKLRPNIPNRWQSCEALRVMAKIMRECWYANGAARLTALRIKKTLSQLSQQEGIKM
T14 sequence (P06213 28-1382): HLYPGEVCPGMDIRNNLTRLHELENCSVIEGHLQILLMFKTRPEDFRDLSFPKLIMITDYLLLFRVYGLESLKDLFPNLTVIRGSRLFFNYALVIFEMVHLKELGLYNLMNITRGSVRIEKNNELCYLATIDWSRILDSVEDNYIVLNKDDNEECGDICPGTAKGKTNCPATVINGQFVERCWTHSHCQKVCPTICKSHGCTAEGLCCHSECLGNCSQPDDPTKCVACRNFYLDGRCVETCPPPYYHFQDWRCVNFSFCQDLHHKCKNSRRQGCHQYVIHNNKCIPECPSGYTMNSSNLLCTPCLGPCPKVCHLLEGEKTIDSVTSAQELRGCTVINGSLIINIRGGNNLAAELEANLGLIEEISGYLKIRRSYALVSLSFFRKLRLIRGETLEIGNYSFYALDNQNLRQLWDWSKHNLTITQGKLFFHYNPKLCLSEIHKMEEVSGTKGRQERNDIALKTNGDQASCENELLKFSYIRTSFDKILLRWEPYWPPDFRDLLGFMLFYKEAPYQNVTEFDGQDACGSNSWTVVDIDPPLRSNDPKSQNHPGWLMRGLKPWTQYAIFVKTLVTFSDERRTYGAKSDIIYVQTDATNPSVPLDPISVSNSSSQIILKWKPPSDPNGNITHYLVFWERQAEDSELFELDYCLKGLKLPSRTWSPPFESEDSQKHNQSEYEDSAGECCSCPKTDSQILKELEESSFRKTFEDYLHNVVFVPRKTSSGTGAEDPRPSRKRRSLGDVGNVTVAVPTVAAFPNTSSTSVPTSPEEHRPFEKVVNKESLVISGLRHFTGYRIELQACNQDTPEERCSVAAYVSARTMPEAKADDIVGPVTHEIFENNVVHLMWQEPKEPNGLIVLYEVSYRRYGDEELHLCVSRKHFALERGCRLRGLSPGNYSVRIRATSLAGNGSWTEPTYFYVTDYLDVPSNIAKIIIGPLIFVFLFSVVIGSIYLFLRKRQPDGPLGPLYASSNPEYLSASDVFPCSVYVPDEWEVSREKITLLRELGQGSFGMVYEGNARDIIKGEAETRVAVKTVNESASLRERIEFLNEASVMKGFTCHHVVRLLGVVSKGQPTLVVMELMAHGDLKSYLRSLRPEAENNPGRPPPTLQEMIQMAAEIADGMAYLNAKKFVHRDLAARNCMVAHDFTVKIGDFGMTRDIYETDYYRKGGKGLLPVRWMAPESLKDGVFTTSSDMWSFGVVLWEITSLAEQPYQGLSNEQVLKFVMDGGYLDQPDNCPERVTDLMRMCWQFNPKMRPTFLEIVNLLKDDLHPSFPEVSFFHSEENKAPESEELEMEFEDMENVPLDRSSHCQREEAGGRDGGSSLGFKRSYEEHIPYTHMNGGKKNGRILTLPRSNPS
T2 sequence (P05177 whole entry): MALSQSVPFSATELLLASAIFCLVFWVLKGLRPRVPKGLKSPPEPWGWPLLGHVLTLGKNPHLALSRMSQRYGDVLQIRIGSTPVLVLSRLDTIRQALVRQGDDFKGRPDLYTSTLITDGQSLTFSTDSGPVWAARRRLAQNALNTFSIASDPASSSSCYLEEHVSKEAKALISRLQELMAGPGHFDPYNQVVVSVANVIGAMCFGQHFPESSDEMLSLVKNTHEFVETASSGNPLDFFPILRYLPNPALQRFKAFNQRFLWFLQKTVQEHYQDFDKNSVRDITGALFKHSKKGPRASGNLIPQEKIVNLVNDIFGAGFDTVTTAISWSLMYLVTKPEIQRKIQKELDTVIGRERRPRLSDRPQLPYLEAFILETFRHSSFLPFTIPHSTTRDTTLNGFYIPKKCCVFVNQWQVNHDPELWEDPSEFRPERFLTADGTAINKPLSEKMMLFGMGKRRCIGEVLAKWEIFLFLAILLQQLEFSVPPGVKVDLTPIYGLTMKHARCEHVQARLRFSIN
T5 sequence (O60674 whole entry): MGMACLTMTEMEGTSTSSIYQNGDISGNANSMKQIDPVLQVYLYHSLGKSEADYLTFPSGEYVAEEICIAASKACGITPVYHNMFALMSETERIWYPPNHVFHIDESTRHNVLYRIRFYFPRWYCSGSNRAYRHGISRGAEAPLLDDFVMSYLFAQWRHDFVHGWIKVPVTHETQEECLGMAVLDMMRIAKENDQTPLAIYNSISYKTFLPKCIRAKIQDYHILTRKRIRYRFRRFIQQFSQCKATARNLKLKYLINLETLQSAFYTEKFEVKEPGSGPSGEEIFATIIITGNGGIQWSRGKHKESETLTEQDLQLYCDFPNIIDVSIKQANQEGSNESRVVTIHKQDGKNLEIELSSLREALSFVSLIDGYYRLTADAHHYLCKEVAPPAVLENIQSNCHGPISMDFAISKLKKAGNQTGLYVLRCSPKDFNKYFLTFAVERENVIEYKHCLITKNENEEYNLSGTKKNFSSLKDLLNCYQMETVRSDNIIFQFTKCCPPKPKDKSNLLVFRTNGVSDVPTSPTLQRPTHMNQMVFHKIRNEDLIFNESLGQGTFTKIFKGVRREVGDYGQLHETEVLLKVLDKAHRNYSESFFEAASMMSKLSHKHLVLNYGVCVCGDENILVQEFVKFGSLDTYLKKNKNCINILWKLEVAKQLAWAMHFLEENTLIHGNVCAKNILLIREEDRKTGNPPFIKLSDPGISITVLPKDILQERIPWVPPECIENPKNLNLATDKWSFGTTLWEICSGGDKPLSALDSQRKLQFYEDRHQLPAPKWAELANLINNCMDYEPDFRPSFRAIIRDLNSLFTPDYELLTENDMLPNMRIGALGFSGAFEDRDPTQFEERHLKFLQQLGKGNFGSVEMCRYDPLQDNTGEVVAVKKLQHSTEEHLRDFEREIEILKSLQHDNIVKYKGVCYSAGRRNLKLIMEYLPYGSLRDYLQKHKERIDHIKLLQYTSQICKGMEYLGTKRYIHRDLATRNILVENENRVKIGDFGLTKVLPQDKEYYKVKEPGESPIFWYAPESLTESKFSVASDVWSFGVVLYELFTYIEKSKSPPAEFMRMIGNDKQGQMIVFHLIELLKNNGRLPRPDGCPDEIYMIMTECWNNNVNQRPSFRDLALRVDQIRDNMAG
T16 sequence (Q16539 whole entry): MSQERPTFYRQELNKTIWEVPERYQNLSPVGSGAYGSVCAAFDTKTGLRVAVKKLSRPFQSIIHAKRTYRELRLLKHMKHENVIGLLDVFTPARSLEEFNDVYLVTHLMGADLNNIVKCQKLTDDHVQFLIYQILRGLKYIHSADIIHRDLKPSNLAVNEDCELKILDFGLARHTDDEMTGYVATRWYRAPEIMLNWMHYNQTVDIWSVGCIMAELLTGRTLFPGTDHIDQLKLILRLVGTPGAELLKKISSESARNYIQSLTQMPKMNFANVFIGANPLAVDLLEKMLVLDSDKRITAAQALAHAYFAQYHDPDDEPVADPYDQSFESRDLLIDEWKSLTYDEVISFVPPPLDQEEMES
T7 sequence (P45983 1-384 isoform P45983-2): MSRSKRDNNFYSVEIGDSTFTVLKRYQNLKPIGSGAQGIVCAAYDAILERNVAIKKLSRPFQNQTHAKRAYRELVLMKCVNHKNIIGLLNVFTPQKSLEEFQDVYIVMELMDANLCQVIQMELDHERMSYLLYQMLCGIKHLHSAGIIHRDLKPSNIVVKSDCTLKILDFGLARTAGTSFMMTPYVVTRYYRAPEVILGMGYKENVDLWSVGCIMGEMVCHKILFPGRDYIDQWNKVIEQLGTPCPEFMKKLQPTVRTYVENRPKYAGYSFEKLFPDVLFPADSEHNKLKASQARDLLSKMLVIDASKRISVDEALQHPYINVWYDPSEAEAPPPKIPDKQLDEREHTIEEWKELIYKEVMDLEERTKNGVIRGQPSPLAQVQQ

Take `c1cn2c(n1)c(Nc1ccc(N3CCOCC3)cc1)nc1ccc(-c3cn[nH]c3)cc12` [Compound 1]: the concentration for half-maximal inhibition (IC50) in [1] is above 50 nM; in series [2], above 50 nM; in [3], above 50000 nM; in series [4], above 50 nM; in series [5], 141 nM; in series [6], above 10000 nM. For the same molecule, the IC50 in [7] is 1170 nM; in [8] it was above 10000 nM; in [9] it was 1850 nM; in [10] it was 775 nM; in [11] it was 232 nM; in series [12] it was 847 nM. Also, the IC50 in [13] was 499 nM; in [14], above 10000 nM; in series [15], above 10000 nM; in series [16] it was above 10000 nM. For the same molecule, the Kp at 1 h in [17] (C57BL/6, cornea / plasma, other: eye drops (ocular administration), 1 hour, read-out: eye-to-blood ratio) is 641. The Kp at 3 h in series [17] (C57BL/6, cornea / plasma, other: eye drops (ocular administration), 3 hours, read-out: eye-to-blood ratio) stood at 427. For the same molecule, the concentration at 1 h in series [17] (C57BL/6, plasma, other: eye drops (ocular administration), 1 hour, read-out: Drug concentration in plasma) stood at 10.4 nM. Also, the concentration at 3 h in [17] (C57BL/6, plasma, other: eye drops (ocular administration), 3 hours, read-out: Drug concentration in plasma) is 6.8 nM. Further, the “Drug concentration in corneal” value in series [17] (1 hour) came to 6670 nmol/kg; in series [17] (3 hours) it was 2910 nmol/kg.

By IC50 is commonly meant the concentration that gives 50% inhibition.
